Legend:
Aspergillus Niger = assay: Activity against Aspergillus Niger; format: cell-based
Excerpt: Cyclosporin C may be isolated by chromatography as a compound active against Aspergillus Niger and having greater polarity than Cyclosporins A and B (designated S7481/F-1 and S7481/F-2 in the above mentioned D.O.S.).

[1] = Solubility at room temperature; format: physicochemical
[2] = system: hemolytic plaque-forming cells; assay: Jerne test (local hemolysis in gel); format: in vivo; conditions: mice, 50 to 200 mg/kg per os
Excerpt: (i) in the Jerne test the effect of the substance on local hemolysis in gel is observed.

[3] = system: antibodies formed against sheep erythrocytes; assay: Hemagglutination test (HAT); format: in vivo; conditions: mice, 100 to 200 mg/kg per os
Method: (ii) in the hemagglutination test (HAT) in mice a stimulation of the antibodies formed against sheep erythrocytes is obtained at a dose of from 100 to 200 mg/kg per os. animal body weight;

[4] = system: skin grafts in H-2 histoincompatible mice; assay: Skin transplantation (allograft) test; format: in vivo; conditions: 100 to 200 mg/kg per os
[5] = system: paralysis induced by experimentally induced nerve tissue damages; assay: Experimental allergic encephalomyelitis (EAE) test; format: in vivo; conditions: rats, between 50 and 100 mg/kg/day
[6] = system: oxazolone skin hypersensitivity swelling; assay: Oxazolone skin hypersensitivity reaction; format: in vivo; conditions: mice, doses of 70 to 200 mg/kg
[7] = system: Freund adjuvant arthritis swellings; assay: Freund adjuvant arthritis latent period test; format: in vivo; conditions: rats, p.o., about 1 to about 10 mg/kg

Row | Compound | activity against Aspergillus Niger (Aspergillus Niger) | solubility in organic solvents ([1]; benzene, dichloromethane, chloroform, ethyl acetate, acetone, ethanol and methanol) | solubility in water ([1]; water) | stimulation of hemolytic plaque-forming cells (immunoglobulin M and G2a antibodies) [2] | stimulation of the antibodies formed against sheep erythrocytes [3] | prolongation in the period of survival of skin grafts [4] | incidence of paralysis [5] | inhibition of swelling [6] | inhibition of swellings [7]
1 | C/C=C/C[C@@H](C)[C@@H](O)[C@H]1C(=O)N[C@@H]([C@@H](C)O)C(=O)N(C)CC(=O)N(C)[C@@H](CC(C)C)C(=O)N[C@@H](C(C)C)C(=O)N(C)[C@@H](CC(C)C)C(=O)N[C@@H](C)C(=O)N[C@H](C)C(=O)N(C)[C@@H](CC(C)C)C(=O)N(C)[C@@H](CC(C)C)C(=O)N(C)[C@@H](C(C)C)C(=O)N1C [Cyclosporin C, cyclosporin C] | active | – | – | – | – | – | – | – | –
2 | dihydrocyclosporin C | – | easily soluble | difficulty soluble | significant stimulation | stimulation | significant prolongation | reduced significantly | significant and pronounced inhibition | inhibition of swellings

Source: US4210581A, “Organic compounds” (Sandoz Ltd., priority 1975, dated 1980)
